Laboratory results reported in ChEMBL document CHEMBL1201862, “PubChem BioAssay data set” (2004).
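Five compound concentrations were applied to cells in 96-well plates for 48 hours; endpoints were derived by simple linear interpolation of the resulting dose-response curve. GI50: concentration for 50% inhibition of growth.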 The source made the active and inactive calls. Cut-off read from the data, not from the text of the source: active = GI50 up to about 1.1 µM and inactive = higher.

How the values were obtained:
Test in all cases: DTP human tumour cell line panel, 48 h
BT-549 = test system: BT-549
SNB-19 = test system: SNB-19
IGROV-1 = test system: IGROV-1
SK-MEL-2 = test system: SK-MEL-2
UACC-62 = test system: UACC-62
MOLT-4 = test system: MOLT-4
Malme-3M = test system: Malme-3M
K562 = test system: K562
SK-OV-3 = test system: SK-OV-3
DU-145 = test system: DU-145
NCI-H226 = test system: NCI-H226
HOP-62 = test system: HOP-62
SK-MEL-28 = test system: SK-MEL-28
KM12 = test system: KM12
EKVX = test system: EKVX
SF-295 = test system: SF-295
OVCAR-3 = test system: OVCAR-3
NCI-H23 = test system: NCI-H23
CCRF-CEM = test system: CCRF-CEM
CAKI-1 = test system: CAKI-1

| Compound | GI50 (BT-549) | GI50 (SNB-19) | GI50 (IGROV-1) | GI50 (SK-MEL-2) | GI50 (UACC-62) | GI50 (MOLT-4) | GI50 (Malme-3M) | GI50 (K562) | GI50 (SK-OV-3) | GI50 (DU-145) | GI50 (NCI-H226) | GI50 (HOP-62) | GI50 (SK-MEL-28) | GI50 (KM12) | GI50 (EKVX) | GI50 (SF-295) | GI50 (OVCAR-3) | GI50 (NCI-H23) | GI50 (CCRF-CEM) | GI50 (CAKI-1) |
| --- | --- | --- | --- | --- | --- | --- | --- | --- | --- | --- | --- | --- | --- | --- | --- | --- | --- | --- | --- | --- |
| CCCCCCCCC/C=C1/CC(CO)(COC(=O)c2ccccc2)OC1=O (centres undefined) | 14.1 µM (inactive) | 15.4 µM (inactive) | 16.1 µM (inactive) | 16.3 µM (inactive) | 14.7 µM (inactive) | 4.98 µM (inactive) | 6.92 µM (inactive) | 3.89 µM (inactive) | 18.6 µM (inactive) | 12.9 µM (inactive) | 10.5 µM (inactive) | 4.92 µM (inactive) | 13.7 µM (inactive) | 16.7 µM (inactive) | 14.9 µM (inactive) | 10 µM (inactive) | 16.7 µM (inactive) | 15 µM (inactive) | 10.9 µM (inactive) | 12.2 µM (inactive) |
| CCN(CC)CCn1ncc2ccc3c(c(=O)c4cccnc4n3CCN(CC)CC)c21 | 2.25 µM (inactive) | 1.97 µM (inactive) | 0.625 µM (active) | 1.79 µM (inactive) | 2.49 µM (inactive) | 0.344 µM (active) | 1.75 µM (inactive) | 0.119 µM (active) | 1.16 µM (inactive) | 2.41 µM (inactive) | 1.7 µM (inactive) | 0.867 µM (active) | 2.05 µM (inactive) | 0.603 µM (active) | 1.29 µM (inactive) | 1.3 µM (inactive) | 1.13 µM (inactive) | 1.29 µM (inactive) | 0.348 µM (active) | 3.54 µM (inactive) |
| O=C(/C=C/c1ccccc1)Nc1ccccc1SCCCCl | 8.11 µM (inactive) | 19.1 µM (inactive) | 1.18 µM (inactive) | 22.2 µM (inactive) | 6.9 µM (inactive) | 12.7 µM (inactive) | 10.7 µM (inactive) | 9.66 µM (inactive) | 8.41 µM (inactive) | 10.2 µM (inactive) | > 33.7 µM (inactive) | 15 µM (inactive) | > 47.4 µM (inactive) | 3.78 µM (inactive) | 15.4 µM (inactive) | 7.89 µM (inactive) | 13.1 µM (inactive) | 3.56 µM (inactive) | 10 µM (inactive) | 5.79 µM (inactive) |
| N=C(N)Nc1ccc(CC(N)NCC(=O)O)cc1 (centres undefined) | > 25 µM (inactive) | – | > 25 µM (inactive) | > 25 µM (inactive) | > 25 µM (inactive) | > 25 µM (inactive) | > 25 µM (inactive) | > 25 µM (inactive) | > 25 µM (inactive) | > 25 µM (inactive) | > 25 µM (inactive) | > 25 µM (inactive) | > 25 µM (inactive) | > 25 µM (inactive) | > 25 µM (inactive) | > 25 µM (inactive) | > 25 µM (inactive) | > 25 µM (inactive) | > 25 µM (inactive) | > 25 µM (inactive) |
| CCOC(=O)COc1c(OC)cc(C2C3=C(COC3=O)Oc3cc4c(cc32)OCO4)cc1OC (centres undefined) | 21.9 µM (inactive) | 13 µM (inactive) | 1.83 µM (inactive) | 8.75 µM (inactive) | 1.69 µM (inactive) | 0.417 µM (active) | 57.8 µM (inactive) | 0.155 µM (active) | 3.17 µM (inactive) | 4.5 µM (inactive) | > 54 µM (inactive) | 2.16 µM (inactive) | 0.614 µM (active) | 0.304 µM (active) | 4.02 µM (inactive) | 0.9 µM (active) | 0.528 µM (active) | 0.646 µM (active) | 0.229 µM (active) | 3.41 µM (inactive) |
| O=C(Nc1ccccc1)N(CCCCN(Cc1ccccc1)C(=O)Nc1ccccc1)Cc1ccccc1 | > 100 µM (inactive) | 38 µM (inactive) | > 100 µM (inactive) | > 100 µM (inactive) | > 100 µM (inactive) | 52.7 µM (inactive) | > 100 µM (inactive) | 30.8 µM (inactive) | > 100 µM (inactive) | > 100 µM (inactive) | > 100 µM (inactive) | > 100 µM (inactive) | > 100 µM (inactive) | > 100 µM (inactive) | 72.3 µM (inactive) | > 100 µM (inactive) | > 100 µM (inactive) | > 100 µM (inactive) | > 100 µM (inactive) | > 100 µM (inactive) |
| COc1ccc(C2c3cc4c(cc3C(O)C3CCC(=O)N23)OCO4)cc1 (centres undefined) | 96.4 µM (inactive) | > 100 µM (inactive) | > 100 µM (inactive) | > 100 µM (inactive) | > 100 µM (inactive) | > 100 µM (inactive) | > 100 µM (inactive) | > 100 µM (inactive) | > 100 µM (inactive) | > 100 µM (inactive) | > 100 µM (inactive) | > 100 µM (inactive) | > 100 µM (inactive) | > 100 µM (inactive) | > 100 µM (inactive) | > 100 µM (inactive) | > 100 µM (inactive) | > 100 µM (inactive) | > 100 µM (inactive) | > 100 µM (inactive) |
| O=[N+]([O-])c1ccc(-c2cc(O)c3nc4ccccc4n3c2)cc1 | > 100 µM (inactive) | > 53.7 µM (inactive) | > 100 µM (inactive) | > 100 µM (inactive) | > 31.6 µM (inactive) | > 100 µM (inactive) | > 100 µM (inactive) | > 100 µM (inactive) | 22.8 µM (inactive) | > 100 µM (inactive) | > 100 µM (inactive) | 28.6 µM (inactive) | > 100 µM (inactive) | > 100 µM (inactive) | > 100 µM (inactive) | > 100 µM (inactive) | > 100 µM (inactive) | > 100 µM (inactive) | > 100 µM (inactive) | > 100 µM (inactive) |
| c1ccc2c(c1)CCc1[nH]c3c(c1-2)-c1ccccc1CC3 | > 100 µM (inactive) | > 100 µM (inactive) | > 100 µM (inactive) | > 100 µM (inactive) | > 100 µM (inactive) | 35.6 µM (inactive) | > 100 µM (inactive) | 36.7 µM (inactive) | > 100 µM (inactive) | > 100 µM (inactive) | 61.8 µM (inactive) | 15.1 µM (inactive) | > 100 µM (inactive) | 48.2 µM (inactive) | > 100 µM (inactive) | 39.5 µM (inactive) | 91.4 µM (inactive) | > 100 µM (inactive) | 39.4 µM (inactive) | 91.6 µM (inactive) |
| O=C1N[C@@H]2c3c(Br)sc(Br)c3C(=O)[C@@H]2O1 | 8.57 µM (inactive) | 15.8 µM (inactive) | 4.84 µM (inactive) | 16.8 µM (inactive) | 13.2 µM (inactive) | 1.89 µM (inactive) | 2.59 µM (inactive) | 0.887 µM (active) | 18.7 µM (inactive) | 15 µM (inactive) | 9.66 µM (inactive) | 22 µM (inactive) | 2.62 µM (inactive) | 10.7 µM (inactive) | 2.13 µM (inactive) | 17.2 µM (inactive) | 1.8 µM (inactive) | 2.83 µM (inactive) | 1.57 µM (inactive) | 0.877 µM (active) |
| O=C(Nc1ccn(C2CC(I)C(COC(c3ccccc3)(c3ccccc3)c3ccccc3)O2)c(=O)n1)c1ccccc1 (centres undefined) | 25.6 µM (inactive) | 12.9 µM (inactive) | 13.3 µM (inactive) | > 10 µM (inactive) | 11.2 µM (inactive) | 4.13 µM (inactive) | 7.78 µM (inactive) | 5.28 µM (inactive) | 15.5 µM (inactive) | 11.9 µM (inactive) | 8.55 µM (inactive) | 14 µM (inactive) | 11.4 µM (inactive) | 7.46 µM (inactive) | 13.2 µM (inactive) | 13.6 µM (inactive) | 4.25 µM (inactive) | 6.89 µM (inactive) | 8.89 µM (inactive) | 15.6 µM (inactive) |
| CCC(C)C(NC(=O)c1c2ccccc2nc2ccccc12)C(=O)O (centres undefined) | 22.6 µM (inactive) | > 100 µM (inactive) | 86.5 µM (inactive) | > 100 µM (inactive) | > 100 µM (inactive) | > 100 µM (inactive) | 51.2 µM (inactive) | > 100 µM (inactive) | > 100 µM (inactive) | > 100 µM (inactive) | > 100 µM (inactive) | > 100 µM (inactive) | > 100 µM (inactive) | > 100 µM (inactive) | > 100 µM (inactive) | > 100 µM (inactive) | > 100 µM (inactive) | 83 µM (inactive) | 31.7 µM (inactive) | > 100 µM (inactive) |
| Cc1n[n+](Cc2ccccc2)c2sc(N)nn12 | 38.4 µM (inactive) | > 100 µM (inactive) | > 100 µM (inactive) | > 100 µM (inactive) | 10.2 µM (inactive) | 58.9 µM (inactive) | > 100 µM (inactive) | 76.7 µM (inactive) | 85.9 µM (inactive) | > 100 µM (inactive) | 74 µM (inactive) | > 100 µM (inactive) | > 100 µM (inactive) | > 100 µM (inactive) | > 100 µM (inactive) | > 100 µM (inactive) | > 100 µM (inactive) | > 100 µM (inactive) | 32 µM (inactive) | > 100 µM (inactive) |
| COc1cc(N(CCC#N)CCC#N)ccc1C(/N=N/c1cccc([N+](=O)[O-])c1)=N\NC(=O)c1ccc(C)cc1 | 22 µM (inactive) | > 100 µM (inactive) | > 100 µM (inactive) | > 100 µM (inactive) | > 100 µM (inactive) | 16.9 µM (inactive) | > 100 µM (inactive) | 73.5 µM (inactive) | > 100 µM (inactive) | > 100 µM (inactive) | > 100 µM (inactive) | > 100 µM (inactive) | > 100 µM (inactive) | > 100 µM (inactive) | 10.4 µM (inactive) | > 100 µM (inactive) | 96.8 µM (inactive) | 37.1 µM (inactive) | 20.6 µM (inactive) | > 100 µM (inactive) |
